Measured values taken from patent publication US6090605A, “Purified porcine kidney L-fucose kinase” (The Board of Trustees of the University of Arkansas, priority 1998, dated 2000).

Columns and labels:
[1] = target: T1, pig kidney fucokinase (110 kDa band) (Sus scrofa, UniProt I3LTC2); assay: Photoaffinity labeling of the fucokinase with 8-azido-ATP[32P]; type: binding
T1 construct: L-Fucokinase was purified to apparent homogeneity from the cytosolic fraction of pig kidney; from tissue; host or cells: pig kidney, cytosolic fraction
T1 sequence (I3LTC2 1-1083): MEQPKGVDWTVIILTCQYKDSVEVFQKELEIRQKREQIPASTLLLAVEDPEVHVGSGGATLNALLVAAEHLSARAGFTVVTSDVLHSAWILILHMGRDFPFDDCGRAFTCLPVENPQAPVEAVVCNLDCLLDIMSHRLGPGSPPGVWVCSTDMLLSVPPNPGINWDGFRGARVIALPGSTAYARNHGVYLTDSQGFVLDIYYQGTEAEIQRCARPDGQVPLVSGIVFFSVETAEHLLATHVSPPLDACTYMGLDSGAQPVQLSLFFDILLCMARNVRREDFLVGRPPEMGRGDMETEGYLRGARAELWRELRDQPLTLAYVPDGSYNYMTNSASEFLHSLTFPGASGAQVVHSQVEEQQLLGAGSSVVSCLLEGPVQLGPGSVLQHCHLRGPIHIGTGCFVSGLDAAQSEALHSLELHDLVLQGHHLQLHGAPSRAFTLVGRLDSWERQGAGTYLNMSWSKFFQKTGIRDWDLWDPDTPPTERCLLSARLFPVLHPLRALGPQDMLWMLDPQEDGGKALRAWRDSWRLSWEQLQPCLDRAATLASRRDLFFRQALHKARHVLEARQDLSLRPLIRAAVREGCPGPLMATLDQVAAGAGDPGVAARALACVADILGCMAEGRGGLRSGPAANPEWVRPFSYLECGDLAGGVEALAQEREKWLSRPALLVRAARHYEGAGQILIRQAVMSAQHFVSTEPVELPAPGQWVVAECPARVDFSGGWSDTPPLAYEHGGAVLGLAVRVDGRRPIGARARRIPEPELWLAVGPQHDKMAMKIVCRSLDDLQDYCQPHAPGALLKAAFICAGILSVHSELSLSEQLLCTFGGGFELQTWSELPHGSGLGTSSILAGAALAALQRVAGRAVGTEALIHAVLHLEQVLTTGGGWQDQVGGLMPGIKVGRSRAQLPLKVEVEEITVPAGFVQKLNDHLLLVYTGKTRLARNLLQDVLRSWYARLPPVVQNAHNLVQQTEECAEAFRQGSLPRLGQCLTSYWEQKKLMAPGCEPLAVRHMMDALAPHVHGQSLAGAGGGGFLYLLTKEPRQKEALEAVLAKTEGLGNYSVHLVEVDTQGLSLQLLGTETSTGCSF
Description: The purified enzyme was incubated for 20 seconds with azido-ATP[^32 P], and the mixture was exposed to UV for 90 seconds. The reaction was stopped by adding loading buffer and the mixture subjected to SDS-PAGE. Radioactive bands were detected by exposure to film. Lanes are as follows: Lane 1, Probe+enzyme, but no UV; Lane 2, Probe+enzyme+UV; Lanes 3 through 6. Probe+enzyme+0.3, 0.6, 0.9, and 1.2 mM ATP+exposure to UV light; lanes 7 and 8, 0.6 and 1.2 mM GTP+probe+exposure to UV light: lanes 9 and 10, 0.6 and 1.2 mM ITP+probe+exposure to UV light. In lanes 11 and 12, the enzyme was incubated with N3 -GTP[^32 P ] and then exposed to UV light (lane 12) or not exposed to UV light (lane 11). Lane 13 is a control of enzyme+N3 -ATP[^32 P]+exposure to UV light.
Enzyme, at various stages of purity, was mixed with 8-azido-ATP[^32 P] in buffer, and allowed to incubate for 20 sec. in an ice bath. 8-Azido-ATP[^32 P] was prepared as previously described (16). After incubation, the reaction mixture was exposed to short wave UV light for about 90 sec. to activate the azido group, and the protein was subjected to SDS gel electrophoresis to separate the proteins. The gels were dried and exposed to film to locate the radioactive bands and were also stained with Coomassie blue to locate the various proteins. The specificity of the labeling was determined by examining the effect of various concentrations of unlabeled ATP or other nucleotides on the labeling of the protein by N3 -ATP[^32 P]. Various controls were also run, such as one in which exposure to UV was omitted.
Lanes 11-13 of FIG. 3 show the results of another experiment designed to determine whether 8-N3 -GTP[^32 P] could label the fucokinase. […] These experiments indicate that the fucokinase is quite specific for ATP.

[2] = target: T2, pig kidney fucokinase (Sus scrofa, UniProt I3LTC2); assay: Inhibition of [3H]L-fucose phosphorylation by unlabeled monosaccharides; type: biochemical; settings: for Relative Activity (%): unlabeled monosaccharide 500 μM, radiolabeled L-fucose substrate 100 μM; for inhibition of phosphorylation of [3H]L-fucose (in words): unlabeled sugar 500 μM
T2 construct: L-Fucokinase was purified to apparent homogeneity from the cytosolic fraction of pig kidney; from tissue; host or cells: pig kidney, cytosolic fraction
T2 sequence (I3LTC2 1-1083): T1 sequence (I3LTC2 1-1083)
Description: (§1) Fucokinase activity was assayed by measuring the production of L-fucose-1-Pfrom [^3 H]L-fucose and ATP. The incubation mixtures contained the following components (final concentrations) in a total volume of 150 μl: L-fucose, 0.1 mM; ATP, 5 mM; MgSO4, 5 mM; Tris-HCl buffer, pH 8.0, 65 mM; and various amounts of enzyme at the different stages of purification. Incubations were at 37° C. for 10 minutes, and reactions were terminated by heating the reaction mixtures in a boiling water bath for 1 minute. The incubation mixtures were then applied to a column of DE-52 contained in a Pasteur pipette, and the column was washed with at least 5 column volumes of 10 mM (NH4)HCO3 to remove the unbound material. The [^3 H]fucose-1-P was then eluted with 500 mM (NH4)HCO3. Aliquots of the eluates were assayed for their radioactive content by subjecting a portion to scintillation counting.
Although it was possible to get a reasonable assessment of the sugar specificity of the kinase from the above experiment, it was not possible to test sugars such as D-fucose, since these sugars are not available in radioactive form. Thus, these unlabeled sugars were tested for their ability to inhibit the phosphorylation of [^3 H]L-fucose. The rationale for this experiment is that a sugar that inhibits the phosphorylation of L-fucose would probably compete with L-fucose for the phosphorylation (i.e., active) site.

[3] = target: T2, pig kidney fucokinase; assay: Specificity of fucokinase for phosphate donor (nucleotides); type: biochemical; settings: for activity as phosphate donor (in words): nucleotide added at 1 mM; for Specific Activity: nucleotide added at 1 mM as phosphate donor
Description: as §1
The specificity of the nucleoside triphosphate was also examined by testing the ability of a variety of nucleotides to serve as phosphate donors in the phosphorylation of [^3 H]L-fucose. […] In addition, no activity is observed with any nucleoside diphosphates or monophosphates.

[4] = test system: pig liver L-fucokinase preparation; settings: cited from earlier work
[5] = target: T2, pig kidney fucokinase; assay: Effect of metal ions on fucokinase activity; type: biochemical
Description: Increasing concentrations of the metal ions shown were added to incubations of the purified enzyme with ^3 H-fucose and ATP, and the formation of fucose-1-P was measured as described below. Metal ions tested were as follows: Mg^++, filled circles; Fe^++, filled diamonds; Co^++, filled triangles; Mn^++, filled squares.
as §1
Co^++ and Mn^++ were also stimulatory with maximum activity occurring at about 3 to 5 mM, but the maximum activity was only about 25% to 33% of that observed with Mg^++.

[6] = target: T2, pig kidney fucokinase; assay: Sugar specificity of purified fucokinase (radiolabeled sugars as phosphate acceptors); type: biochemical; settings: for Specific Activity: radiolabeled sugar 100 μM as phosphate acceptor
Description: as §1
The specificity of the kinase for various sugar substrates was examined in two different ways. In the first set of experiments, various radiolabeled sugars were tested as phosphate acceptors for the purified enzyme using the ion-exchange chromatography method for assay of activity. […] D-Arabinose, which has the same configuration at carbons 1 through 4 as L-fucose, was also a reasonable substrate for phosphorylation, and was about 10% as effective as L-fucose. On the other hand, all of the other sugars were ineffective as phosphate acceptors.

Molecule: 8-N3 -GTP[^32 P]
- labeling of the 110 kDa protein by photoprobe (in words) ([1]; incubation with probe, exposure to UV light): did not give rise to labeled protein

Molecule: O=CC[C@@H](O)[C@H](O)[C@H](O)CO [2-deoxy-D-glucose]
- Relative Activity (%) [2]: 92%
- inhibition of phosphorylation of [3H]L-fucose (in words) [2]: ineffective as inhibitors

Molecule: Nc1ncnc2c1ncn2[C@@H]1O[C@H](COP(=O)(O)OP(=O)(O)O)[C@@H](O)[C@H]1O [ADP]
- activity as phosphate donor (in words) [3]: Inactive

Molecule: Nc1ncnc2c1ncn2[C@@H]1O[C@H](COP(=O)(O)O)[C@@H](O)[C@H]1O [AMP]
- activity as phosphate donor (in words) [3]: Inactive

Molecule: Nc1ncnc2c1ncn2[C@@H]1O[C@H](COP(=O)(O)OP(=O)(O)OP(=O)(O)O)[C@@H](O)[C@H]1O [ATP]
- inhibition of labeling of the 110 kDa band by N3-ATP[32P] (in words) ([1]; unlabeled ATP 0.3-1.2 mM, GTP, ITP 0.6 and 1.2 mM): inhibited in a dose-dependent manner
- Specific Activity [3]: 4.05 nmoles/mg protein/10 min

Molecule: Nc1ccn([C@@H]2O[C@H](COP(=O)(O)OP(=O)(O)O)[C@@H](O)[C@H]2O)c(=O)n1 [CDP]
- activity as phosphate donor (in words) [3]: Inactive

Molecule: Nc1ccn([C@@H]2O[C@H](COP(=O)(O)O)[C@@H](O)[C@H]2O)c(=O)n1 [CMP]
- activity as phosphate donor (in words) [3]: Inactive

Molecule: Nc1ccn([C@@H]2O[C@H](COP(=O)(O)OP(=O)(O)OP(=O)(O)O)[C@@H](O)[C@H]2O)c(=O)n1 [CTP]
- Specific Activity [3]: 0.05 nmoles/mg protein/10 min
- use as phosphate donor (in words) [4]: could also use

Molecule: [Ca+2] [Ca^++]
- stimulation of enzyme activity by metal ion (in words) [5]: inactive

Molecule: [Cu+2] [Cu^++]
- stimulation of enzyme activity by metal ion (in words) [5]: inactive
- effect on activity when added to incubations containing Mg++ (in words) ([5]; metal ion at 1 mM): completely inhibited activity

Molecule: O=C[C@@H](O)[C@H](O)[C@H](O)CO [D-arabinose]
- activity as phosphate acceptor (in words) ([6]; purified enzyme): active as phosphate acceptors
- rate of phosphorylation relative to L-fucose ([6]; purified enzyme, sugar as phosphate acceptor): about 10%
- Specific Activity [6]: 1.1 nmole/mg protein
- Relative Activity (%) [2]: 80%
- inhibition of phosphorylation of [3H]L-fucose (in words) [2]: inhibited although considerably less so than the L-fucose

Molecule: C[C@@H](O)[C@H](O)[C@H](O)[C@@H](O)C=O [D-fucose]
- Relative Activity (%) [2]: 102%
- inhibition of phosphorylation of [3H]L-fucose (in words) [2]: ineffective as inhibitors

Molecule: C[C@@H](O)[C@@H](O)[C@H](O)[C@H](O)C=O [D-rhamnose]
- Relative Activity (%) [2]: 102%

Molecule: O=C[C@H](O)[C@H](O)[C@H](O)CO [D-ribose]
- Specific Activity [6]: 0 nmole/mg protein
- Relative Activity (%) [2]: 96%
- phosphorylation of sugar by the about 70-fold purified preparation (in words) [4]: considerable activity for phosphorylating

Molecule: O=C[C@H](O)[C@@H](O)[C@H](O)CO [D-xylose]
- Specific Activity [6]: 0 nmole/mg protein
- Relative Activity (%) [2]: 103%
